Data on five compounds can be found in patent US12152019B2, “Arylalkyl pyrazole compounds as indoleamine 2,3-dioxygenase inhibitors” (Merck Sharp & Dohme LLC, priority 2018, dated 2024).

For assay [1], the target named is T1, IDO1 (Homo sapiens, UniProt P14902). Nature of the assay: IDO1 Human Whole Blood Assay. Type of assay: cell-based. The settings on record: LPS and IFNγ 100 ng/mL, overnight (18 h), kynurenine by LC/MS/MS. The protocol: IDO1 Human Whole Blood Assay Compounds to be tested were serially diluted in ten 3-fold steps in DMSO starting from 10 mM. 3 μL of compound dilutions or DMSO alone were then dispensed from the dilution plate into a polypropylene 96-well assay plate containing 97 μL of RPMI using an Echo 555 acoustic liquid handler (Labcyte). LPS and IFNγ was prepared in RPMI to a 10× of final conc. (1000 ng/mL), final concentration is 100 ng/mL. […] 240 μL of blood was transferred to each of the wells of a v-bottom 96 well plate. 30 μL of compound was transferred from intermediate dilution plate, and incubated for 15 min. 30 μL from stimulants was then transferred to blood and mixed thoroughly. Plate was covered with breathable membrane and incubated at 37° C. for overnight (18 h). […] Plasma was diluted with RPMI in 1:1 ratio and proteins were precipitated out with two volume of Acetonitrile. The plates were centrifuged at 4000×G for 60 min. 20 μL of supernatant was carefully transferred to a 384 well plate contain 40 μL of 0.1% formic acid in water and analyzed by LC/MS/MS. LC/MS/MS analyses were performed using Thermo Fisher's LX4-TSQ Quantum Ultra system. This system consists of four Agilent binary high-performance liquid chromatography (HPLC) pumps and a TSQ Quantum Ultra triple quadrupole MS/MS instrument. For each sample, 5 μL were injected onto an Atlantis T3 column (2.1 mm×150 mm, 3 μm particle size) from Waters. The mobile phase gradient pumped at 0.8 mL/min was used to elute the analytes from the column at 25° C. The elution started at 0% B increasing linearly to 25% B at 6.5 min, holding at 25% for 1 min, re-equilibrating to 10 min. Mobile phase A consisted of 0.1% formic acid in water. Mobile phase B consisted of 0.1% of formic acid in acetonitrile. Data was acquired in positive mode using a HESI interface. The operational parameters for the TSQ Quantum Ultra instrument were a spray voltage of 4000 V, capillary temperature of 380° C., vaporizer temperature 400° C., shealth gas 60 arbitrary units, Aux gas 20 arbitrary units, tube lens 85 and collision gas 1.2 mTorr. SRM chromatograms of kynurenine (Q1: 209.2>Q3:94.0) and internal standard (Q1: 215.3>Q3:98.2) were collected for 90 sec. The peak area was integrated by Xcalibur Quan software. […] Compounds were titrated and IC50's were calculated by 4 parameter sigmoidal curve fitting formula.
T1 sequence (P14902 whole entry): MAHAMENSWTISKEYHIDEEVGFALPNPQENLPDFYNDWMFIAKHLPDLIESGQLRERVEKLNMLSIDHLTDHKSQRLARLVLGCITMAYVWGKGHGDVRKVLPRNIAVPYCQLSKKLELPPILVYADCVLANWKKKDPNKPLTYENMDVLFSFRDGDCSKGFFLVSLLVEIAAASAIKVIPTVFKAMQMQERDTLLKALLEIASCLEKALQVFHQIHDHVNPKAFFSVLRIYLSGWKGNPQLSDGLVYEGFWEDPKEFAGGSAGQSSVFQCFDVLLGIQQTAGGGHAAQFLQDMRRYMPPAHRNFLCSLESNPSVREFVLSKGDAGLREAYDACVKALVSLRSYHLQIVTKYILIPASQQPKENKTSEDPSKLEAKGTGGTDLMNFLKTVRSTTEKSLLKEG

For assay [2], the target named is T1, IDO1. Nature of the assay: IDO1 Cellular Assay in HeLa Cells Stimulated with IFNγ. The settings on record: HeLa Cell Potency, IC50 (nM). The assay is classed as cell-based.
Where [3] appears, read: read-out: Human Whole Blood Potency, IC50.

As usually defined, the IC50 is the concentration needed to halve the response being measured.

SMILES strings stand for the structures.

For the compound `Cc1cccnc1O[C@H]1CC[C@@H](CCn2nc(C(=O)N3CC[C@H](O)[C@H](F)C3)c3c2C[C@H]2C[C@@H]32)CC1` [Example 83, [(3R,4S)-3-fluoro-4-hydroxypiperidin-1-yl] [(3bR,4aR)-1-(2-{cis-4-[(3-methylpyridin-2-yl)oxy]cyclohexyl}ethyl)-3b,4,4a,5-tetrahydro-1H-cyclopropa[3,4]cyclopenta [1,2-c]pyrazol-3-yl] methanone], on IDO1 [1] (setting [3]), the IC50 was found to be 110 nM. The same measure, in the same setting: the same measure for `Cc1cccnc1O[C@H]1CC[C@@H](CCn2nc(C(=O)N3CCC(O)CC3)c3c2C[C@H](C(F)F)CC3)CC1` [Example 87, [(6R)-6-(difluoromethyl)-1-(2-{cis-4-[(3-methylpyridin-2-yl)oxy]cyclohexyl}ethyl)-4,5,6,7-tetrahydro-1H-indazol-3-yl](4-hydroxypiperidin-1-yl)methanone]: 736 nM.

Turning to `CC(=O)NC1CCN(C(=O)c2nn(CCN3CCN(c4cccc(C)c4C)CC3)c3c2[C@@H]2C[C@@H]2C3)CC1` [Example 100, N-(1-((3bR,4aR)-1-(2-(4-(2,3-dimethylphenyl)piperazin-1-yl)ethyl)-3b,4,4a,5-tetrahydro-1H-cyclopropa[3.4]cyclopenta[1,2-c]pyrazole-3-carbonyl)piperidin-4-yl)acetamide], the half-maximal inhibitory concentration (IC50) at IDO1 [1] (setting [3]) is 247 nM. In the case of `CC(=O)NC1CCN(C(=O)c2nn(CCN3CCN(c4cccc(Cl)c4C)CC3)c3c2[C@@H]2C[C@@H]2C3)CC1` [Example 102, N-(1-((3bR,4aR)-1-(2-(4-(3-chloro-2-methylphenyl)piperazin-1-yl)ethyl)-3b,4,4a,5-tetrahydro-1H-cyclopropa[3,4]cyclopenta[1,2-c]pyrazole-3-carbonyl)piperidin-4-yl)acetamide], the half-maximal inhibitory concentration (IC50) on IDO1 [1] (setting [3]) turned out to be 261 nM. Turning to `Cc1cccc(N2CCC(CCn3nc(C(=O)N4CCCC4)c4ccccc43)CC2)c1C` [Example 103], the half-maximal inhibitory concentration (IC50) at IDO1 [1] (Human Whole Blood Potency, IC50 (nM)) is 1030 nM; against IDO1 [2], 15.4 nM.
